The results in this text go back to PubChem BioAssay AID1549 (Sanford-Burnham Center for Chemical Genomics, 2009).

The structures appear in SMILES notation. The source made the active and inactive calls. How the calls were made is not given here.

The target of this experiment is Influenza A virus M2 proton channel (A/TW/4845/1999 H1N1). Nature of the experiment: M2 proton channel binding, NMR based, influenza A virus H1N1 strain (AID 1549). The conditions noted are these: NMR binding screen, M2 protein.
In the case of `C=CCCCCCCCCCCCC(O)CC(O)CO` (centres undefined) (tested in a mixture with another compound), the Kd was > 4 mM (inactive). For the compound `O=C(NN=C1CCCC1)c1ccncc1`, the Kd is > 4 mM (inactive).

On to `O=C(O)c1ccccc1C(=O)NCC1CCCO1` (centres undefined), for which the Kd is > 4 mM (inactive).

For the compound `COc1ccc2c3c1O[C@H]1C[C@@H](O)C=C[C@@]31CCN(C)C2`, the Kd is > 4 mM (inactive). Then `CS(=O)(=O)Nc1ccc(C(=O)N2CCCCC2)cc1`, with > 4 mM (inactive); and `C=C(C)C1CC=C(CO)CC1` (centres undefined), with > 4 mM (inactive). Then `Cc1cc(C)nc(/N=C(/N)N2CCOCC2)n1`, with > 4 mM (inactive); and `Cc1ccc(CO)o1`, with > 4 mM (inactive).

`CC(C)=CCOc1c2occc2cc2ccc(=O)oc12`: the Kd is > 4 mM (inactive). Then `CCSc1nnc2[nH]c(=O)cc(C)n12`, with > 4 mM (inactive); and `C[C@@H]1O[C@@H](O[C@H]2[C@H](Oc3cc(O)c4c(=O)cc(-c5ccc(O)cc5)oc4c3)O[C@H](CO)[C@@H](O)[C@@H]2O)[C@H](O)[C@H](O)[C@H]1O`, with > 4 mM (inactive); and `CC(C)NS(=O)(=O)c1ccc(N)cc1`, with > 4 mM (inactive). Then `COC(=O)C[C@@H]1C2(C)C(=O)[C@@H](CC3C2CC[C@]2(C)C3CC(=O)O[C@H]2c2ccoc2)[C@H](OC(C)=O)C1(C)C` (some centres undefined), with > 4 mM (inactive); and `Nc1cccnc1N1CCOCC1`, with > 4 mM (inactive). Then `O=C(C1CCNCC1)N1CCCCCC1`, with > 4 mM (inactive). With `Cc1ccnc(NS(=O)(=O)c2cccs2)c1`, the Kd was > 4 mM (inactive). Then `O=C(O)c1cc2ccccc2cn1`, with > 4 mM (inactive); and `COc1cccc(/C=C/C(=O)O)c1C(C)C`, with > 4 mM (inactive); and `CCOC(=O)Cn1cnc2c1c(=O)[nH]c(=O)n2C`, with > 4 mM (inactive). Then `NCc1ccccc1N1CCOCC1`, with > 4 mM (inactive); and `O=C1OC(N2CCOCC2)c2ccccc21` (centres undefined), with > 4 mM (inactive); and `CCOC(=O)c1c(C)cc(O)cc1O`, with > 4 mM (inactive). On to `Fc1ccc2onc(C3CCNCC3)c2c1`, for which the Kd was > 4 mM (inactive).

Regarding `Nc1nc2ccc(C(=O)O)cc2s1`, the Kd was > 4 mM (inactive).

Turning to `Nc1ccc(-c2csnn2)cc1`, the Kd was > 4 mM (inactive). Then `Nc1ccccc1N1CCOCC1`, with > 4 mM (inactive); and `Cc1nc(-c2ccccc2)sc1CN`, with > 4 mM (inactive); and `COc1cc2c(cc1OC)-c1nnnn1C(C)(C)C2`, with > 4 mM (inactive). Then `O=C(CN1CCOCC1)Nc1cccc(Br)c1`, with > 4 mM (inactive); and `O=C1CC(=O)N(c2ccccc2)C(=O)N1`, with > 4 mM (inactive); and `CC1=C(/C=C/C(C)=C/C=C/C(C)=C/C=C/C=C(C)/C=C/C=C(C)/C=C/C(=O)[C@]2(C)C[C@@H](O)CC2(C)C)C(C)(C)C[C@H](O)C1`, with > 4 mM (inactive). Then `COC(=O)c1cccnc1Oc1ccccc1`, with > 4 mM (inactive); and `O=C(Nc1ccc2c(c1)OCO2)c1cccc(F)c1`, with > 4 mM (inactive); and `NC(CC(=O)O)C(=O)Nc1ccc(Cl)cc1` (centres undefined), with > 4 mM (inactive). For the compound `O=C(O)Cc1n[nH]c(=O)c2ccccc12`, the Kd is > 4 mM (inactive). Then `O=C(O)c1ccc(-n2cccc2)cc1`, with > 4 mM (inactive); and `COC(=O)c1cccc(Cn2nnc3ccccc3c2=O)c1`, with > 4 mM (inactive); and `NC(=O)c1ccc(NC(=O)c2cccnc2)cc1`, with > 4 mM (inactive). Then `CCc1nnc(NC(C)=O)s1`, with > 4 mM (inactive); and `O=C(NCCCO)c1ccncc1`, with > 4 mM (inactive). Then `Nc1cc(=O)[nH]c(=O)n1Cc1ccco1`, with > 4 mM (inactive). For the compound `OCc1cccc2nonc12`, the Kd was > 4 mM (inactive). Then `Cc1ccc(N2NC(=O)CC2=O)cc1C`, with > 4 mM (inactive). Then `CCOC(=O)c1cc(C)n(C)n1`, with > 4 mM (inactive). `NC(=S)N1CCC(c2ccccc2)=N1`: the Kd was > 4 mM (inactive). For the compound `Cc1n[nH]c(=O)nc1N1CCN(c2ccccc2)CC1`, the Kd is > 4 mM (inactive). Then `O=C(Nc1ccccc1[N+](=O)[O-])c1ccc(=O)[nH]n1`, with > 4 mM (inactive); and `O=C(O)CSc1nc2ccccc2c(=O)[nH]1`, with > 4 mM (inactive); and `C=C[C@H]1CN2CC[C@H]1C[C@@H]2[C@H](O)c1ccnc2ccccc12`, with > 4 mM (inactive). On to `CS(=O)(=O)c1ccccc1C(=O)Nc1nccs1`, for which the Kd is > 4 mM (inactive).

`CC(=O)Nc1ccc(NC(C)=O)c(C(F)(F)F)c1`: the Kd is > 4 mM (inactive). Take `O=C(c1ccc(Cl)s1)N1CCOCC1`: the Kd is > 4 mM (inactive).

`COc1cccc2onc(N)c12`: the Kd was > 4 mM (inactive). Then `COc1c(-c2ccccc2)oc2c(OC)cccc2c1=O`, with > 4 mM (inactive); and `C=C1C2CC[C@@]3(C)[C@H](c4ccoc4)OC(=O)C[C@]13O[C@H]1CC(=O)C(C)(C)[C@H](C(OC(C)=O)C(=O)OC)[C@@]21C` (some centres undefined), with > 4 mM (inactive); and `Cn1ccc(C(=O)NC(=S)NN2CCOCC2)n1`, with > 4 mM (inactive). Then `CC(C)=CC(=O)Nc1ccccc1C(N)=O`, with > 4 mM (inactive); and `CC(=O)NC12CC3CC(C)(C1)CC(NC(C)=O)(C3)C2`, with > 4 mM (inactive); and `S=C1NC(=S)NC(c2ccc3c(c2)OCO3)N1`, with > 4 mM (inactive). Then `Cc1cccnc1NC1=NCC(C)S1` (centres undefined), with > 4 mM (inactive); and `O=C(NC1CSCC1O)c1ccccc1` (centres undefined), with > 4 mM (inactive); and `Cc1ccc(C(=O)Nc2ccncc2)o1`, with > 4 mM (inactive). `Cc1c(C)n2c(SCC(N)=O)nnc2[nH]c1=O`: the Kd is > 4 mM (inactive). Then `C=C1C(N)CC2CC1C2(C)C` (centres undefined), with > 4 mM (inactive); and `O=C1NC(=O)C2C3C=CC(O3)C12` (centres undefined), with > 4 mM (inactive).

Regarding `CS(=O)(=O)N1CCC(C(=O)NC2CCCC2)CC1`, the Kd was > 4 mM (inactive). Then `O=C(CSc1ccc(Cl)cc1)N1CCOCC1`, with > 4 mM (inactive); and `O=C(O)c1cccnc1`, with > 4 mM (inactive); and `O=C(Nc1ccc(N2CCOCC2)cc1)C1CC1`, with > 4 mM (inactive).

Consider `Cn1c(SCC(N)=O)nc2ccccc2c1=O`, for which the Kd was > 4 mM (inactive).

With `COC(=O)/C(=C1\OC(=O)C(c2ccccc2)C1=O)c1ccccc1` (centres undefined), the Kd is > 4 mM (inactive). Then `CC(C)=CCc1c2c(c(O)c3c(=O)c(O)c(-c4ccccc4)oc13)C=CC(C)(C)O2`, with > 4 mM (inactive); and `CC1=[N+]([O-])C2(N)CCc3c(no[n+]3[O-])C2(O)C1` (centres undefined), with > 4 mM (inactive). As to `COc1ccc(Cl)cc1-c1n[nH]c(=S)n1C`, the Kd was > 4 mM (inactive).

One may read the Kd as the concentration at which binding is half-saturated.
